Where two headings read alike, the source gives them in different places. Where a SMILES comes first, the peptide text is derived from it. Where no end group is shown, it is not given here. [ ]: non-standard residue; d: D form. The star is where a group is joined. Sta = CC(C)C[C@H](N)[C@@H](O)CC(=O)O; Isovaleryl = CC(C)CC(=O)*
Legend:
β-FGF = biological target: T1, β-FGF (Homo sapiens, UniProt P09038); test: Elisa assay for binding of β-FGF to heparin; settings: inhibition of β-FGF binding to heparin
T1 construct: purchased Sigma F0291
T1 sequence (P09038 143-288): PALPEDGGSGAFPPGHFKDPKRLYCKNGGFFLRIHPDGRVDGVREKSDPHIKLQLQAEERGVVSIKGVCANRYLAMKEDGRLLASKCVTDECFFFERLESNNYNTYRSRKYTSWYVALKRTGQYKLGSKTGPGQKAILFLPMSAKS
Description: Elisa assay for determination of binding of β-FGF to heparin—96 well microplates were coated overnight with Heparin-albumin (Lizard) and blocked with 1% BSA in PBS with 0.05% Tween and 0.01% thimerosal for 2 hrs. β-FGF was added to the plates at a concentration of 0.8 ng/ml and incubated for 45 min at 23-25° C. The amount of β-FGF bound to heparin was detected using anti-FGF monoclonal antibody (Sigma Cat. # F6162) at a concentration of 2.5 ng/ml and secondary antibodies Sheep anti-mouse IgG linked to horseradish peroxidase (1:3000). TMB (Pierce Cat. #34021) was used as a substrate for peroxidase.
(§1) The plates were read at 450 nm with a reference wavelength of 630 nm using a VERSAmax plate reader. […] Percent inhibition was calculated as compared with the control reactions pre-incubated with 1% DMSO only.

pro-heparanase (H60) [1] = biological target: T2, pro-heparanase (H60) (Homo sapiens, UniProt Q9Y251, K307R); test: Pro-heparanase activation in a cell-based assay (293 cells, DMB assay); settings: inhibition of pro-heparanase activation (H60); Table 15
T2 sequence (Q9Y251 36-543 K307R): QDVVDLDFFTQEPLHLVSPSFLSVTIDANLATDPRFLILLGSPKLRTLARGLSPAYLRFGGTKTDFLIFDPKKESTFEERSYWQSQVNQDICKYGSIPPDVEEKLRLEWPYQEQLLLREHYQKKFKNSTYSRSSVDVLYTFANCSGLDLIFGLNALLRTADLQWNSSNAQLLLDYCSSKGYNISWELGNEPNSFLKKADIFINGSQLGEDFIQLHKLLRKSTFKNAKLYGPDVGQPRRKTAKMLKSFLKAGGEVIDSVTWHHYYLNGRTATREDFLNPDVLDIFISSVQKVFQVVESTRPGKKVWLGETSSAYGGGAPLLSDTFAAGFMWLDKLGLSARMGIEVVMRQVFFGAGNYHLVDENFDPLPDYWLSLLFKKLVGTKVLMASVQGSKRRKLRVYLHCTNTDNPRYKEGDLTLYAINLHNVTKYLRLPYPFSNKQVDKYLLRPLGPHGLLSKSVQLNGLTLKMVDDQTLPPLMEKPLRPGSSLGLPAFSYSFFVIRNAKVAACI

heparanase (H53) = biological target: T3, heparanase (H53) (Homo sapiens, UniProt Q9Y251, K307R); test: Heparanase activity inhibition (H53), DMB assay; assay type: biochemical; settings: for IC50: heparanase activity inhibition (H53), NI = no inhibition
T3 sequence (Q9Y251 158-543 K307R limits assumed): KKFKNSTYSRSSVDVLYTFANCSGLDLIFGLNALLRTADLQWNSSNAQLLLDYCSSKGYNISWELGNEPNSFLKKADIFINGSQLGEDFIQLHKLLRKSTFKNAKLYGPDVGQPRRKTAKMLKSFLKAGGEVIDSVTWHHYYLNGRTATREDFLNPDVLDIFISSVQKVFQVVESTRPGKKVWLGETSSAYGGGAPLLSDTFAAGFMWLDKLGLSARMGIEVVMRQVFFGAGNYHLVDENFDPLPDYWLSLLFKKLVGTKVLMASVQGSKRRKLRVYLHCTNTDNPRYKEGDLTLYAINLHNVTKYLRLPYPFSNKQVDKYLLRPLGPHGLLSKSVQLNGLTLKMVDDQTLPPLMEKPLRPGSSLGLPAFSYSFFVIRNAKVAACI
T3 sequence (Q9Y251 36-109 limits assumed): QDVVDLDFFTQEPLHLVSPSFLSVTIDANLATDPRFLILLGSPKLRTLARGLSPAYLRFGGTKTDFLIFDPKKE
Description: At the end of the incubation, the cells were lysed by three consecutive cycles of freezing and thawing in a −80° C. Freezer and a 37° C. shaker. Formation of active heparanase was detected by determination of heparanase activity in DMB assay as described in patent application U.S. Pat. No. 6,190,875B.

VEGF = biological target: T4, VEGF (Homo sapiens, UniProt P15692); test: Elisa assay for binding of VEGF to heparin; settings: inhibition of VEGF binding to heparin
T4 sequence (P15692 27-191 isoform P15692-4): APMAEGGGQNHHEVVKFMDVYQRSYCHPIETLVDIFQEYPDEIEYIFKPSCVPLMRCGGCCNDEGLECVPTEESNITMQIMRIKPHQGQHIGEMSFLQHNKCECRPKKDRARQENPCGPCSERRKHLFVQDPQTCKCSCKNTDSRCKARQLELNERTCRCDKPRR
Description: Elisa assay for determination of binding of VEGF to heparin—96 well microplates were coated overnight with Heparin-albumin (Lizard) and blocked with 1% BSA in PBS with 0.05% Tween and 0.01% thimerosal for 2 hrs. VEGF was added to the plates at a concentration of 2 ng/ml and incubated for 45 min. at 23-25° C. The amount of VEGF bound to heparin was detected using anti-VEGF monoclonal antibody (Sigma Cat. # V4758) at a concentration of 0.26 μg/ml and secondary antibodies Sheep anti-mouse IgG linked to horseradish peroxidase (1:2000). TMB (Pierce Cat. #34021) was used as a substrate for peroxidase.
as §1

HUVEC cells = test: Cord Formation Assay; assay type: cell-based; settings: Homo sapiens; HUVEC cells on matrigel, 24 h; read-out: Inhibition of cord formation IC50
Description: (§2) Cord formation and cell migration assays were executed following explicit directives provided by the inventors of the present invention by the National Cancer Institute (Biological Testing Branch, Developmental Therapeutics Program, DCTD, NCI, Fairview Center, Suite 205, 1003 West 7th Street, Frederick, Md. 21701-8527).
Cord Formation Assay—Matrigel (60 μl of 10 mg/ml; Collaborative Lab # 35423) was placed in each well of an ice-cold 96-well plate. The plate was incubated at room temperature for 15 minutes and then transferred to 37° C. for 30 minutes to permit matrigel polymerization. Concomitantly with plate coating, HUVEC cells were diluted in EGM-2 (Clonetic # CC3162) at a concentration of 2×10^5 cells/ml. Each test compound was prepared at a 2 fold higher concentration than desired (5 concentration levels) using the same medium. Cells (500 μl) and 2× drug (500 μl) were mixed and 200 μl of this suspension were placed in duplicates on the polymerized matrigel. Following 24 h incubation, triplicate pictures were taken for each concentration using a Bioquant Image Analysis system. Drug effect (IC50) was assessed by comparing to untreated controls and measuring the length of cords formed and number of junctions.

HUVEC cell = test: Cell Migration Assay (Boyden chamber); assay type: cell-based; settings: Homo sapiens, HUVEC cells, 5 h, read-out: Inhibition of chemotaxis IC50
Description: as §2
Cell Migration Assay—Migration was assessed using a 48-well Boyden chamber including 8 μm pore size collagen-coated (10 μg/ml rat tail collagen; Collaborative Laboratories) polycarbonate filters (Osmonics, Inc.). The bottom chamber wells included 27-29 μl of DMEM medium alone (baseline) or medium containing chemo-attractant (bFGF, VEGF or Swiss 3T3 cell conditioned medium). The top chambers included 45 μl of HUVEC cell suspension (1×10^6 cells/ml) prepared in DMEM+1% BSA with or without the test compound. Followinf 5 h of incubation at 37° C., the membrane was rinsed with PBS, fixed and stained in Diff-Quick solutions. The filter was placed on a glass slide with the migrated cells facing down and cells on top were removed using a Kimwipe. The testing was performed in 4-6 replicates where five fields were counted from each well. Negative unstimulated control values were subtracted from stimulated control and drug treated values. Data wad plotted as mean migrated cell±S.D. IC50 was calculated from the plotted data.

pro-heparanase (H60) [2] = biological target: T2, pro-heparanase (H60); test: Processing and activation of pro-heparanase in vitro with cathepsin B and D in the presence of heparin (Western blot, DMB assay); assay type: biochemical; settings: cathepsin B and/or cathepsin D
Description: Western blot analysis—Western blot analysis was performed using rabbit anti-heparanase polyclonal antibodies as described in U.S. Pat. Nos. 6,177,545; 6,531,129; and 6,562,950.
Following a 17 hours incubation at room temperature, reaction products were filtered to a new plate and quantified using di-methyl-methylene-blue, as described in U.S. Pat. No. 6,190,875.
Assay mixtures contained heparin (Sigma, H3393) or heparinomimetic molecules ethane-1,2-disulfonic acid (Sigma, E2269) and heparin disaccharide IVA (Sigma, H0895) for western blot analysis or heparin sepharose beads for activation assays, in 200 mM acetate buffer, pH 5.5, 4 mM EDTA and 8 mM DTT, with either Cathepsin B, Cathepsin D or both. Following a 17 hours of incubation at room temperature, reaction products were examined by western blot analysis or filtered to a new plate and quantified using di-methyl-methylene-blue, as described in U.S. Pat. No. 6,190,875 for activation assay.

293 cell extract = test: Cleavage of Z-Pro-Lys-Lys-Glu-AMC (Peptide 1) by 293 cell extract and its inhibition by protease inhibitors; assay type: biochemical, human; design: % Inhibition: concentration or dose not given beside the values; settings: inhibition of Z-Pro-Lys-Lys-Glu-AMC cleavage by 293 cell extract
Description: Following a 20 minutes incubation at 37° C., fluorescence released due to proteolytic activity was determined using a BMG POLARstar™ Galaxy fluorometer: excitation at 390 nm and emission at 460 nm.

Heparanase = biological target: T5, Heparanase (Homo sapiens, UniProt Q9Y251, K307R); test: Dimerization assay (H53 hetero-dimer formation, di-methyl-methylene-blue); assay type: biochemical
T5 sequence (Q9Y251 158-543 K307R limits assumed): T3 sequence (Q9Y251 158-543 K307R limits assumed)
T5 sequence (Q9Y251 36-109 limits assumed): T3 sequence (Q9Y251 36-109 limits assumed)
From the text: Dimerization assay—Activation assay using di-methyl-methylene-blue was effected as described in U.S. Pat. No. 6,190,875.

pro-heparanase (H60) [3] = biological target: T2, pro-heparanase (H60); test: Circular dichroism spectrometry of pro-heparanase
Description: Circular Dichroism spectrometry—Circular Dichroism spectra were recorded using a JASCO 500 spetropolarimeter. Far Ultraviolet measurements (260-200 nm) were performed in a 0.1 mm demountable cuvette at 25° C., scanning at a rate of 10 nm/min. Pro-heparanase was assayed at a concentration of 0.72 mg/ml in 20 mM sodium phosphate buffer pH 6.8 supplemented with 300 mM NaCl. Effect of heparin on pro-heparanase spectra was determined at a concentration of 100 μM, and the inhibitor was added at a concentration of 15 μM. Base-line recordings were performed in the presence and absence of heparin to correct the pro-heparanase spectra.

[4] = inhibition of H53 hetero-dimer formation by H8-derived peptides, read-out: IC50 H53

O=C(O)CCCN1C(=O)C(=Cc2ccc(-c3cccc([N+](=O)[O-])c3)o2)SC1=S [Compound 4]
IC50 (β-FGF): 53.4 µM
IC50 (pro-heparanase (H60) [1]): 0.16 µM
heparanase activity inhibition (H53) in addition to inhibition of pro-heparanase activation (heparanase (H53)): dual activity
IC50 (heparanase (H53)): 3 µM
IC50 (VEGF): 17.8 µM

O=C(O)CCCN1C(=O)C(=Cc2ccc(-c3ccc(Cl)cc3)o2)SC1=S [Compound 6]
IC50 (β-FGF): 23.9 µM
IC50 (HUVEC cells): 3.2 µM
IC50 (pro-heparanase (H60) [1]): 0.87 µM
heparanase activity inhibition (H53) in addition to inhibition of pro-heparanase activation (heparanase (H53)): dual activity
IC50 (heparanase (H53)): 36 µM
IC50 (HUVEC cell): 4 µM
IC50 (VEGF): 17.8 µM

COCCCN1C(=O)C(=Cc2ccc(-c3ccc(Cl)cc3)o2)SC1=S [Compound 58]
IC50 (β-FGF): 0.2 µM
IC50 (pro-heparanase (H60) [1]): 0.92 µM
IC50 (VEGF): 0.2 µM

O=C1/C(=C\c2ccc(-c3ccccc3Cl)o2)SC(=S)N1C1CCS(=O)(=O)C1 (centres unmarked) [Compound 59]
IC50 (β-FGF): 0.4 µM
IC50 (HUVEC cells): 0.4 µM
IC50 (pro-heparanase (H60) [1]): 0.24 µM
IC50 (HUVEC cell): 0.25 µM
IC50 (VEGF): 0.4 µM

O=S(=O)(O)CCS(=O)(=O)O [Compound E2269, ethane-1,2-disulfonic acid]
processing of pro-heparanase in vitro (Western blot) (pro-heparanase (H60) [2]): allowed processing of the H60

CC(=O)N[C@H]1C(O)O[C@H](CO)[C@@H](O[C@@H]2OC(C(=O)O)=C[C@H](O)[C@H]2O)[C@@H]1O (some centres unmarked) [heparin disaccharide IVA]
processing of pro-heparanase in vitro (Western blot) (pro-heparanase (H60) [2]): allowed processing of the H60

CC(C)CC(=O)N[C@H](C(=O)N[C@H](C(=O)N[C@@H](CC(C)C)[C@@H](O)CC(=O)N[C@@H](C)C(=O)N[C@@H](CC(C)C)[C@@H](O)CC(=O)O)C(C)C)C(C)C [pepstatin] (Isovaleryl-VV[Sta]A[Sta]-OH)
processing of pro-heparanase in vitro (Western blot) (pro-heparanase (H60) [2]): No processing occurred
activation of pro-heparanase in vitro (heparanase activity) (pro-heparanase (H60) [2]; heparin-sepharose): inhibited this activation
% Inhibition (293 cell extract): 0%

CPAYLRFGGTKTDFLIFDPLLE [Pep-7]
IC50 (Heparanase; [4]): 7 µM

CTWHHYYLNGRTATR [Pep-25]
IC50 (Heparanase; H45-derived peptide, inhibition of H53 hetero-dimer formation, read-out: IC50 Heparanase): 21 µM

DPRFLILL [Compound P8-16]
IC50 (Heparanase; [4]): 6 µM

FLILLGSPKLRTL [Compound P8-8]
IC50 (Heparanase; [4]): 8 µM

LRTLARGLSPAYL [Compound P8-5]
IC50 (Heparanase; [4]): 18 µM

PRFLILL [Compound P8-11]
IC50 (Heparanase; [4]): 1.4 µM

PRFLILLGSPKLR [Compound P8-4]
IC50 (Heparanase; [4]): 2.3 µM

RFLILL [Compound P8-18]
IC50 (Heparanase; [4]): 5 µM

heparin [reference compound]
processing of pro-heparanase in vitro (Western blot) (pro-heparanase (H60) [2]): heparanase was processed by cathepsin D
conformational change in pro-heparanase (pro-heparanase (H60) [3]): significant conformational change

Reference: US20050042213A1, “Methods and pharmaceutical compositions for modulating heparanase activation and uses thereof” (InSight Biopharmaceuticals Ltd., priority 2003, published 2005)
